For this assay, the target named is T1, Protoporphyrinogen IX oxidase (Zea mays, UniProt Q9FYV8).
T1 sequence (Q9FYV8 whole entry): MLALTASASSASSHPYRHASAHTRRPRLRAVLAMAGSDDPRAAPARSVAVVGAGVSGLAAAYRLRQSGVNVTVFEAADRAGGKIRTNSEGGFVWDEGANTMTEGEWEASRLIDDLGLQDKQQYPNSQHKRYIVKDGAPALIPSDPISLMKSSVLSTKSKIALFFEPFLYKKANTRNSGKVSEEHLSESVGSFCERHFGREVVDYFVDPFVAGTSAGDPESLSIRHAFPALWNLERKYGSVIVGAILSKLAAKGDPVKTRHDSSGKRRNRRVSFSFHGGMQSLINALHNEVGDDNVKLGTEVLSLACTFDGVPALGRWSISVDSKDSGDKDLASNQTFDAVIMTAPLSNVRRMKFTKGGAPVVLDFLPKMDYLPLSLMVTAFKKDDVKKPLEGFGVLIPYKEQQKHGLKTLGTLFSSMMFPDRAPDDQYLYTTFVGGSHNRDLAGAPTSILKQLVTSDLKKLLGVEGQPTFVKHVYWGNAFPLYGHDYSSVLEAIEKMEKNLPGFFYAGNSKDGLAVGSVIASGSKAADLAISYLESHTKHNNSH
The assay is described as follows: Inhibition of Zea mays (maize) protoporphyrinogen IX oxidase. The note with it: read-out: pI50 (converted).
On to `S=c1n(-c2ccc(Br)cc2)c(=S)n2n1CCCC2`, for which the IC50 is 0.01 µM.
The figure for `O=c1[nH][nH]c(=S)n1-c1ccc(Br)cc1` is 72.4 µM.
Take `Cn1c(=O)n(-c2ccc(Br)cc2)c(=O)n1C`: the IC50 is 12.9 µM.
Consider `Cn1c(=O)n(-c2ccc(Br)cc2)c(=S)n1C`, for which the IC50 is 0.282 µM.
The figure for `Cn1c(=S)n(-c2ccc(Br)cc2)c(=S)n1C` is 0.11 µM; for `CCn1c(=O)n(-c2ccc(Br)cc2)c(=O)n1CC` it is 36.3 µM; for `CCn1c(=O)n(-c2ccc(Br)cc2)c(=S)n1CC` it is 0.832 µM.
For the compound `CCn1c(=S)n(-c2ccc(Br)cc2)c(=S)n1CC`, the IC50 was 1.38 µM.
In the case of `CCCn1c(=O)n(-c2ccc(Br)cc2)c(=S)n1CCC`, the IC50 is 24.5 µM.
The figure for `Cn1c(=O)s/c(=N\c2ccc(Br)cc2)n1C` is 3.72 µM; for `Cn1c(=S)s/c(=N\c2ccc(Br)cc2)n1C` it is 3.09 µM; for `CCn1c(=O)s/c(=N\c2ccc(Br)cc2)n1CC` it is 8.71 µM.
As for `CCn1c(=S)s/c(=N\c2ccc(Br)cc2)n1CC`, the IC50 is 4.27 µM.
With `S=c1n(-c2ccc(Br)cc2)c(=S)n2n1CCC2`, the IC50 is 0.0347 µM.
Take `S=c1n(-c2ccc(Br)cc2)c(=S)n2n1CCCCC2`: the IC50 was 0.129 µM.
Regarding `O=C1C2=C(CCCC2)C(=O)N1c1ccc(Cl)cc1` [CHLOROPHTHALIUM], the IC50 was 0.0501 µM.

Source of the values: ChEMBL document CHEMBL3046619, “Peroxidizing Phytotoxicities of 1, 2-Dialkyl-1, 2, 4-triazolidines and 3, 4-Dialkyl-1, 3, 4-thiadiazolidines” (J Pestic Sci, 1997).
